Molecules are shown by their SMILES. Marks after values point to notes of the source that are not given here.

The first data set in a line: logP determination via retention times, calibrated with unbranched alkan-2-ones. Particulars: HPLC on reversed-phase C 18, EEC Directive 79/831 Annex V.A8; method *: 40° C., 0.1% aqueous formic acid and acetonitrile, linear gradient 10% to 95% acetonitrile. Type of data set: physicochemical.
Take `O=C1Cc2cc(Nc3ncc(Cl)c(NCC4CC4)n3)ccc2N1` [compound 516]: the logP was 1.31*. Turning to `COc1cc(Nc2ncc(Cl)c(NCC3CC3)n2)ccc1NC(C)=O` [compound 503], the logP is listed as 1.53*.

In the case of `CN(C)C(=O)c1cccc(Nc2ncc(Cl)c(NCC3CC3)n2)c1` [compound 519], the logP is on record as 1.58*. As to `CC(=O)c1cc(Nc2ncc(Cl)c(NCC3CC3)n2)ccc1O` [compound 553], the logP was 1.85*. The same measure, in the same setting: the same measure for `O=C1CCCN1c1cccc(Nc2ncc(Cl)c(NCC3CC3)n2)c1` [compound 520]: 1.56*. On the same count and under the same terms, the same measure for `CC(=O)N1CCc2ccc(Nc3ncc(Cl)c(NCC4CC4)n3)cc21` [compound 521]: 1.66*. Same read-out and setting: for `CC(=O)Nc1cc(Nc2ncc(Cl)c(NCC3CC3)n2)ccc1O` [compound 552] the value was 1.29*. Take `CCC(=O)Nc1cc(Nc2ncc(Br)c(NCC3CC3)n2)ccc1O` [compound 494]: the logP was 1.97*. Still for that read-out and setting: the same measure for `CC(=O)Nc1ccc(Nc2ncc(Br)c(NCC3CC3)n2)cn1` [compound 481]: 1.47*; for `CSc1cc(Nc2ncc(Cl)c(NCC3CC3)n2)ccc1C` [compound 547]: 2.45*. Still for that read-out and setting: for `CC(=O)Nc1cc(Nc2ncc(Br)c(NCC3CC3)n2)ccc1C` [compound 468] the value was 1.51*; for `Fc1ccc(Nc2ncc(Cl)c(NCC3CC3)n2)cc1` [compound 550], 1.97*.

The data set is the same for the next values; noted with them: HPLC on reversed-phase C18, method *: 40° C., 0.1% aqueous formic acid and acetonitrile, linear gradient 10% to 95% acetonitrile.
Regarding `COC(=O)Nc1ccc(Nc2ncc(C#N)c(NC3CC3)n2)cc1` [compound 159], the logP is given as 1.91*. Still for that read-out and setting: for `CCCCc1ccccc1Nc1ncc(Cl)c(NC2CC2)n1` [compound 911] the value was 2.3*; for `CCCSc1cccc(Nc2ncc(Br)c(NC3CC3)n2)c1` [compound 706], 3.49*. Same read-out and setting: the same measure for `O=c1ccccn1-c1cccc(Nc2ncc(Cl)c(NC3CC3)n2)c1` [compound 726]: 1.39*. On the same count and under the same terms, for `OC(c1cccc(Nc2ncc(C(F)(F)F)c(NC3CC3)n2)c1)C(F)(F)F` (stereo not drawn) [compound 666] the value was 2.69*; for `Cc1cc(Cl)c(Br)cc1Nc1ncc(Cl)c(NC2CC2)n1` [compound 933], 3.46*; for `CC(=O)N(C)c1ccc(Nc2ncc(C#N)c(NC3CC3)n2)cc1` [compound 158], 1.69*.

For the molecule `Clc1cnc(Nc2ccccc2-c2ccccc2)nc1NC1CC1` [compound 900], the logP is 2.46*. The same measure, in the same setting: the same measure for `CN(C)C(=O)c1cccc(Nc2ncc(Cl)c(NC3CC3)n2)c1` [compound 960]: 1.33*; for `CCOC(=O)Nc1ccc(Nc2ncc(Cl)c(NC3CC3)n2)cc1` [compound 977]: 1.63*.

For the molecule `N#Cc1cccc(Nc2ncc(Br)c(NC3CC3)n2)c1` [compound 741], the logP was 2.26*. The same measure, in the same setting: the same measure for `O=C1CCCN1c1ccc(Nc2ncc(Cl)c(NCC3CC3)n2)cc1` [compound 154]: 1.5*; for `COCc1cccc(Nc2ncc(Cl)c(NCC3CC3)n2)c1` [compound 709]: 1.82*; for `C=CCNC(=O)c1ccc(Nc2ncc(Br)c(NC3CC3)n2)cc1` [compound 755]: 1.73*.

On to `Cc1cc(F)ccc1Nc1ncc(Cl)c(NC2CC2)n1` [compound 945], for which the logP is 1.68*. For the molecule `C/C(=N/O)c1cccc(Nc2ncc(Cl)c(NC3CC3)n2)c1` [compound 736], the logP is 1.52*. Still for that read-out and setting: the same measure for `CCOC(=O)Cc1ccc(Nc2ncc(Br)c(NC3CC3)n2)cc1` [compound 758]: 2.06*; for `O=C(N(c1ccc(Nc2ncc(Cl)c(NC3CC3)n2)cc1)C1CC1)C(F)(F)F` [compound 120]: 2.54*. Still for that read-out and setting: the same measure for `CC(=O)CCc1cccc(Nc2ncc(Br)c(NC3CC3)n2)c1` [compound 967]: 1.83*. Same read-out and setting: for `Clc1ccc(Oc2ccccc2)c(Nc2ncc(Cl)c(NC3CC3)n2)c1` [compound 873] the value was 4.87*.

The same data set, now with this note: HPLC on reversed-phase C18, method *: 40° C.; mobile phase 0.1% aqueous formic acid and acetonitrile; linear gradient 10% to 95% acetonitrile.
As for `CC1(c2ccc(Nc3ncc(Cl)c(NC4CC4)n3)cc2)CCCC1` [compound 310], the logP is given as 3.42*.

In the case of `CCC(=O)c1cccc(Nc2ncc(Cl)c(NC3CC3)n2)c1` [compound 304], the logP is 2.25*. Still for that read-out and setting: for `Clc1cnc(Nc2ccc3c(c2)OCO3)nc1NC1CC1` [compound 295] the value was 1.59*; for `CO/N=C/c1ccc(Nc2ncc(Br)c(NC3CC3)n2)cc1` [compound 338], 2.55*.

Still in this data set, the particulars now being: HPLC on reversed-phase C18 column (EEC Directive 79/831 Annex V.A8); method *: 40° C.; 0.1% aqueous formic acid and acetonitrile; linear gradient 10% to 95% acetonitrile.
Regarding `CN(C)C(=O)c1ccc(Nc2ncc(C(F)(F)F)c(NCC3CC3)n2)cc1` [compound 206], the logP is 2.13*. `CCC(=O)c1cc(Nc2ncc(Cl)c(NC3CC3)n2)ccc1O` [compound 250]: the logP is 1.99*. Still for that read-out and setting: for `CS(=O)(=O)c1cccc(Nc2ncc(Br)c(NC3CC3)n2)c1` [compound 254] the value was 1.76*.

Still in this data set, the particulars now being: HPLC reversed-phase C 18, EEC Directive 79/831 Annex V.A8; method **: 43° C., 0.1% aqueous phosphoric acid and acetonitrile, linear gradient 10% to 95% acetonitrile.
As to `CON(C(C)=O)c1cccc(Nc2ncc(Cl)c(NC3CC3)n2)c1` [compound 850], the logP is 1.57**. As to `CON(C(C)=O)c1cccc(Nc2ncc(Br)c(NC3CC3)n2)c1` [compound 849], the logP is given as 1.68**.

The data set is the same for the next values; noted with them: HPLC reversed-phase C 18, EEC Directive 79/831 Annex V.A8; method *: 40° C., 0.1% aqueous formic acid and acetonitrile, linear gradient 10% to 95% acetonitrile.
With `O=C1OCCN1c1cccc(Nc2ncc(Br)c(NC3CC3)n2)c1` [compound 842], the logP is on record as 1.51*. Turning to `CC(C)(C)c1cccc(Nc2ncc(Br)c(NC3CC3)n2)c1` [compound 779], the logP is given as 3.14*. Still for that read-out and setting: the same measure for `CC(O)C(=O)Nc1cccc(Nc2ncc(Cl)c(NC3CC3)n2)c1` (stereo not drawn) [compound 856]: 1.49*; for `CCCS(=O)(=O)c1cccc(Nc2ncc(Cl)c(NC3CC3)n2)c1` [compound 852]: 2.25*; for `COc1cccc(Nc2ncc(I)c(NC3CC3)n2)c1` [compound 855]: 1.97*. Still for that read-out and setting: the same measure for `COC(c1cccc(Nc2ncc(Cl)c(NCC3CC3)n2)c1)C(F)(F)F` (stereo not drawn) [compound 792]: 2.74*. `CSc1cccc(Nc2ncc(I)c(NC3CC3)n2)c1` [compound 858]: the logP is 2.44*. The same measure, in the same setting: for `N#CCc1ccc(Nc2ncc(Cl)c(NC3CC3)n2)cc1` [compound 832] the value was 1.59*.

The same data set, now with this note: method **: HPLC reversed-phase C 18, 43° C., 0.1% aqueous phosphoric acid and acetonitrile, linear gradient 10% to 95% acetonitrile.
As for `CN(C)S(=O)(=O)c1cccc(Nc2ncc(Cl)c(NCC3CC3)n2)c1` [compound 49], the logP is 2.18**. Same read-out and setting: for `CCCCNS(=O)(=O)c1ccc(Nc2ncc(Cl)c(NC3CC3)n2)cc1` [Example 22] the value was 2.6**; for `Clc1cnc(Nc2ccccc2)nc1NCC1CC1` [Example 10], 1.85**. Same read-out and setting: for `COC(=O)c1ccc(Nc2ncc(Cl)c(NC3CC3)n2)cc1.Cl` [compound 36] the value was 2.25**; for `Clc1cccc(Nc2ncc(Cl)c(NCC3CC3)n2)c1` [compound 9], 2.7**.

The data set is the same for the next values; noted with them: method **: HPLC reversed-phase C 18, temperature 43° C.; mobile phase 0.1% aqueous phosphoric acid and acetonitrile; linear gradient 10% to 95% acetonitrile.
For the molecule `CC(=O)c1ccc(Nc2ncc(C(F)(F)F)c(NC3CC3)n2)cc1` [compound 656], the logP is reported as 2.8**.

Staying with this data set, now noted: method **: HPLC, reversed-phase C 18, 43° C., mobile phase 0.1% aqueous phosphoric acid and acetonitrile, linear gradient from 10% to 95% acetonitrile.
`N#Cc1cc(Nc2ncc(Cl)c(NC3CC3)n2)cc(C(F)(F)F)c1` [compound 1017]: the logP is 3.69**.

The data set is the same for the next values; noted with them: method *: HPLC reversed-phase C18, 40° C., 0.1% aqueous formic acid and acetonitrile, linear gradient 10% to 95% acetonitrile.
With `CC(C)(C)C(=O)Nc1ccc(Nc2ncc(Cl)c(NC3CC3)n2)cc1` [Example 72], the logP is listed as 1.81*. Still for that read-out and setting: the same measure for `FC(F)C(F)(F)Oc1ccc(Nc2ncc(Br)c(NCC3CC3)n2)cc1` [compound 462]: 2.8*; for `CCSc1cccc(Nc2ncc(Cl)c(NC3CC3)n2)c1.Cc1ccc(S(=O)(=O)O)cc1` [compound 440]: 2.73*; for `O=C1CCCCN1Cc1cccc(Nc2ncc(Cl)c(NC3CC3)n2)c1` [compound 373]: 1.58*. Still for that read-out and setting: the same measure for `O=S(=O)(c1ccc(Nc2ncc(Cl)c(NC3CC3)n2)cc1)N1CCOCC1` [compound 85]: 2.68*; for `CC(C)(C)C(=O)Nc1cccc(Nc2ncc(Br)c(NCC3CC3)n2)c1` [compound 451]: 2.06*. Same read-out and setting: for `CCOC(=O)Nc1cccc(Nc2ncc(Br)c(NCC3CC3)n2)c1` [compound 428] the value was 1.99*. As for `Cc1cnc(Nc2ccccc2)nc1NC1CC1` [Example 51], the logP is reported as 1.5*.

The same data set, now with this note: method *: HPLC reversed-phase C 18, temperature 40° C.; mobile phase 0.1% aqueous formic acid and acetonitrile; linear gradient 10% to 95% acetonitrile.
`N#Cc1ccc(Nc2ncc(C(F)(F)F)c(NC3CC3)n2)cc1` [compound 642]: the logP is given as 2.99*. On the same count and under the same terms, the same measure for `O=S(=O)(c1cccc(Nc2ncc(C(F)(F)F)c(NC3CC3)n2)c1)N1CCCCC1` [compound 654]: 2.77*; for `O=C1CCCCN1c1ccc(Nc2ncc(Cl)c(NC3CC3)n2)cc1` [compound 569]: 1.47*; for `CC(=O)c1ccc(Nc2ncc(C(F)(F)F)c(NC3CC3)n2)cc1` [compound 656]: 2.7*;.

In the case of `CNC(=O)Nc1cccc(Nc2ncc(F)c(NC3CC3)n2)c1` [compound 597], the logP is on record as 1.28*. The same measure, in the same setting: the same measure for `COC(c1cccc(Nc2ncc(C(F)(F)F)c(NC3CC3)n2)c1)C(F)(F)F` (stereo not drawn) [compound 624]: 3.74*.

Still in this data set, the particulars now being: method *: HPLC, reversed-phase C 18, 40° C., mobile phase 0.1% aqueous formic acid and acetonitrile, linear gradient from 10% to 95% acetonitrile.
Turning to `CCc1cccc(Nc2ncc(C(F)(F)F)c(NC3CC3)n2)c1` [compound 1034], the logP is given as 3.67*. The same measure, in the same setting: the same measure for `Clc1cnc(Nc2ccc(Sc3ccccc3)cc2)nc1NC1CC1` [compound 1013]: 3.69*.
